Test results as given in patent publication US7625507B2, “Extrusion process for forming chemically stable drug multiparticulates” (Pfizer Inc., priority 2003, dated 2009).

Assay: Lability of drug held in molten mixture for 60 minutes
Assay type: physicochemical
Conditions: 50 wt % azithromycin dihydrate
Description: The multiparticulates formed by the process of the present invention comprise a labile drug and a carrier. As used herein the term “labile” refers to drugs that degrade by at least 0.01 wt % when held in a molten mixture of drug, carrier and optional excipient(s) for 60 minutes. Details on carriers and optional excipients are discussed below. The term “drug” as used herein includes, by way of example and not of limitation, any physiologically or pharmacologically active substance that produces a localized or systemic effect in animals. The term “animals” includes mammals, particularly humans, as well as other animals.
Labile drugs may be identified experimentally by determining whether the drug chemically reacts or degrades when held in the molten mixture of drug, carrier and optional excipients for 60 minutes. In general, drug degradation may be measured using any conventional method for measuring the purity or potency of drug in a pharmaceutical composition. For example, the purity or potency of the drug substance prior to formation of the molten mixture may be measured using high-performance liquid chromatography (HPLC) or other analytical techniques well known in the art. […] The purity or potency of the drug after being in the molten mixture for 60 minutes is then determined. […]

lability in molten mixture (47 wt % COMPRITOL 888 ATO, 3 wt % LUTROL F127 at 90° C. for 60 minutes): labile
lability in molten mixture (48 wt % microcrystalline wax, 2 wt % LUTROL F127, held 60 minutes): not labile
Compound: CC[C@H]1OC(=O)[C@H](C)[C@@H](O[C@H]2C[C@@](C)(OC)[C@@H](O)[C@H](C)O2)[C@H](C)[C@@H](O[C@@H]2O[C@H](C)C[C@H](N(C)C)[C@H]2O)[C@](C)(O)C[C@@H](C)CN(C)[C@H](C)[C@@H](O)[C@]1(C)O [azithromycin, 9a-aza-9a-methyl-9-deoxo-9a-homoerythromycin A]
